# According to ChEMBL document CHEMBL5154874, “Discovery of novel dual RAGE/SERT inhibitors for the potential treatment of the comorbidity of Alzheimer's disease and depression” (Eur J Med Chem, 2022):
# Active and inactive are the calls of the source. No cut-off for these calls is given here.
# Tests used:
# [1] = biological target: Sodium-dependent serotonin transporter (Homo sapiens, UniProt P31645)
# [2] = biological target: Advanced glycosylation end product-specific receptor (Homo sapiens, UniProt Q15109); assay: Inhibition of biotinylated human RAGE/amyloid beta interaction incubated for 120 mins by ELISA assay
# CYP2C9 = CYP2C9 (Homo sapiens, UniProt P11712); assay: Inhibition of CYP2C9 in human liver microsomes at 10 uM incubated for 10 mins in presence of NADPH by LC-MS/MS analysis relative to control; assay type: ADME, Microsome
# CYP1A2 = biological target: T1, CYP1A2 (Homo sapiens, UniProt P05177); assay: Inhibition of CYP1A2 in human liver microsomes at 10 uM incubated for 10 mins in presence of NADPH by LC-MS/MS analysis relative to control; assay type: ADME, Microsome
# T1 sequence (P05177 whole entry): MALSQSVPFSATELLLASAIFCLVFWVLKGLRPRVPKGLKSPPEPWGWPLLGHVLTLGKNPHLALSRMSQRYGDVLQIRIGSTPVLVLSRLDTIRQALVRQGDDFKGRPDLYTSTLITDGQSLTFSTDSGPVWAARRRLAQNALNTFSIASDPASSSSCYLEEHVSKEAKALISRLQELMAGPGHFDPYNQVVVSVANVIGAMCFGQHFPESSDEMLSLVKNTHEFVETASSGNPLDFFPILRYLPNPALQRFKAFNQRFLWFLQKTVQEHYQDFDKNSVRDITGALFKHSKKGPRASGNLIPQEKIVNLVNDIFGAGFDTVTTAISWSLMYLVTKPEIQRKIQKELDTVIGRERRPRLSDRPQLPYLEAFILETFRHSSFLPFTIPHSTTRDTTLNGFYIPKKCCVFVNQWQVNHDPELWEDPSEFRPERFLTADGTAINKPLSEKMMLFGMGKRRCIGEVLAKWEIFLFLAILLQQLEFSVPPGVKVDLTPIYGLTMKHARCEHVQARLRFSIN
# [3] = Metabolic stability in mouse liver microsomes assessed as clearance at 100 uM in presence of NADPH and measured for 5 to 60 mins by LC-MS/MS analysis; assay type: ADME, Microsome; settings: time 5-60 min, read-out: CLH
# Mus musculus [4] = assay: Anti-depressant activity in ICR mouse assessed as reduction in immobility time at 30 mg/kg, po measured after 1 hr post treatment by tail suspension test; assay type: functional, organism-based
# CYP3A4 = CYP3A4 (Homo sapiens, UniProt P08684); assay: Inhibition of CYP3A4 in human liver microsomes at 10 uM incubated for 10 mins in presence of NADPH by LC-MS/MS analysis relative to control; assay type: ADME, Microsome
# [5] = Metabolic stability in mouse liver microsomes assessed as half life at 100 uM in presence of NADPH and measured for 5 to 60 mins by LC-MS/MS analysis; assay type: ADME, Microsome; settings: time 5-60 min
# CYP2C19 = CYP2C19 (Homo sapiens, UniProt P33261); assay: Inhibition of CYP2C19 in human liver microsomes at 10 uM incubated for 10 mins in presence of NADPH by LC-MS/MS analysis relative to control; assay type: ADME, Microsome
# [6] = biological target: Voltage-gated inwardly rectifying potassium channel KCNH2 (Homo sapiens, UniProt Q12809); assay: Inhibition of hERG transfected in CHO cells by manual patch-clamp assay; assay type: toxicity, cell-based
# [7] = Cytotoxicity against human SH-SY5Y cells assessed as cell viability at 20 uM incubated for 24 hrs by MTT assay relative to control; assay type: toxicity, cell-based; settings: read-out: Activity
# [8] = AUC (0 to infinity) in mouse at 60 mg/kg, po measured for 0.25 to 24 hrs; assay type: ADME, organism-based; parameters: time lower 0.25 hrs, dose 60 mg/kg, time upper 24 hrs, route po; settings: in vivo
# [9] = Toxicity in ICR mouse assessed as change in liver to body weight ratio at 100 mg/kg, ip administered as single dose and measured after 2 weeks; assay type: organism-based; settings: in vivo, 336 h
# [10] = Toxicity in ICR mouse assessed as change in spleen to body weight ratio at 100 mg/kg, ip administered as single dose and measured after 2 weeks; assay type: organism-based; settings: in vivo, 336 h
# [11] = Toxicity in ICR mouse assessed as change in lungs to body weight ratio at 100 mg/kg, ip administered as single dose and measured after 2 weeks; assay type: organism-based; settings: in vivo, 336 h
# [12] = Oral bioavailability in mouse at 60 mg/kg measured for 0.25 to 24 hrs; assay type: ADME, organism-based; settings: in vivo, time 0.25-24 hrs
# [13] = Toxicity in ICR mouse assessed as animal survival at 100 mg/kg, ip administered as single dose measured upto 2 weeks; assay type: organism-based; settings: in vivo
# [14] = Toxicity in ICR mouse assessed as animal survival at 200 mg/kg, ip administered as single dose measured upto 2 weeks; assay type: organism-based; settings: in vivo, 336 h
# [15] = Half life in mouse at 10 mg/kg, iv measured for 0.083 to 24 hrs; assay type: ADME, organism-based; settings: in vivo, time 0.083-24 hrs
# [16] = Clearance in mouse at 10 mg/kg, iv measured for 0.083 to 24 hrs; assay type: ADME, organism-based; settings: in vivo, time 0.083-24 hrs
# [17] = Half life in mouse at 60 mg/kg, po measured for 0.25 to 24 hrs; assay type: ADME, organism-based; settings: in vivo, time 0.25-24 hrs
# [18] = Cmax in mouse at 60 mg/kg, po measured for 0.25 to 24 hrs; assay type: ADME, organism-based; parameters: time 0.25-24 hrs, dose 60 mg/kg, route po; settings: in vivo
# [19] = Volume of distribution at steady state in mouse at 10 mg/kg, iv measured for 0.083 to 24 hrs; assay type: ADME, organism-based; settings: in vivo, time 0.083-24 hrs, read-out: Vdss
# [20] = Cmax in mouse at 10 mg/kg, iv measured for 0.083 to 24 hrs; assay type: ADME, organism-based; parameters: time lower 0.083 hrs, dose 10 mg/kg, time upper 24 hrs, route iv; settings: in vivo
# Mus musculus [21] = assay: Anti-depressant activity in ICR mouse assessed as reduction in immobility time at 60 mg/kg, po measured after 1 hr post treatment by tail suspension test; assay type: functional, organism-based
# [22] = Toxicity in ICR mouse assessed as change in kidney to body weight ratio at 100 mg/kg, ip administered as single dose and measured after 2 weeks; assay type: organism-based; settings: in vivo, 336 h
# [23] = Toxicity in ICR mouse assessed as change in heart to body weight ratio at 100 mg/kg, ip administered as single dose and measured after 2 weeks; assay type: organism-based; settings: in vivo, 336 h
# [24] = Toxicity in ICR mouse assessed as change in brain to body weight ratio at 100 mg/kg, ip administered as single dose and measured after 2 weeks; assay type: organism-based; settings: in vivo, 336 h
# [25] = AUC (0 to infinity) in mouse at 10 mg/kg, iv measured for 0.083 to 24 hrs; assay type: ADME, organism-based; parameters: dose 10 mg/kg, time 0.083-24 hrs, route iv; settings: in vivo
# SH-SY5Y [26] = assay: Cytotoxicity against human SH-SY5Y cells assessed as effect on cell viability at 1 to 10 uM incubated for 24 hrs by MTT assay; assay type: toxicity, cell-based; settings: dose 1-10 µM
# SH-SY5Y [27] = assay: Cytotoxicity against human SH-SY5Y cells assessed as cell death at 5 uM incubated for 24 hrs by MTT assay; assay type: toxicity, cell-based
# SH-SY5Y [28] = assay: Cytotoxicity against human SH-SY5Y cells assessed as reduction in cell viability at 10 to 20 uM incubated for 24 hrs by MTT assay; assay type: toxicity, cell-based; settings: dose 10-20 µM
# [29] = Metabolic stability in mouse liver microsomes assessed as parent compound remaining in presence of NADPH and measured after 60 mins by LC-MS/MS analysis
# [30] = Cytotoxicity against human SH-SY5Y cells assessed as cell viability at 5 uM incubated for 24 hrs by MTT assay relative to control; assay type: toxicity, cell-based; settings: read-out: Activity
# Chain of Sodium-dependent serotonin transporter (P31645 whole entry): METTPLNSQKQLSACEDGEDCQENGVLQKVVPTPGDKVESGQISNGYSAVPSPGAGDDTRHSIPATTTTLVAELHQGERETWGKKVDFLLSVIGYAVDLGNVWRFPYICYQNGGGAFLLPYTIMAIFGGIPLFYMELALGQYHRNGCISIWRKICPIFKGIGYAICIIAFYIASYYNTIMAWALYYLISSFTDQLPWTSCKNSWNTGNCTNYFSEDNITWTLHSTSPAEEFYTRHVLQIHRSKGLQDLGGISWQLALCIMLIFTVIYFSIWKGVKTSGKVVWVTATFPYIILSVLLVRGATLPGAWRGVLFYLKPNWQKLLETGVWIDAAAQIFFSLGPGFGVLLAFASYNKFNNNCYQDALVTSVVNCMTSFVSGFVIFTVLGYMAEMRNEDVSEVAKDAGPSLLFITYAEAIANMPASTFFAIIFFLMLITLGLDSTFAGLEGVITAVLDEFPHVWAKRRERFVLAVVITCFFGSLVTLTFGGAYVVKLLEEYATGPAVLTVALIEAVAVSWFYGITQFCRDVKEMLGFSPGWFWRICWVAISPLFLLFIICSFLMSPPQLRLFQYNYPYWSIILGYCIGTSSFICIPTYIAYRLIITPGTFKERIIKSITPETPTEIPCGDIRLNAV
# Chain of CYP3A4 (P08684 whole entry): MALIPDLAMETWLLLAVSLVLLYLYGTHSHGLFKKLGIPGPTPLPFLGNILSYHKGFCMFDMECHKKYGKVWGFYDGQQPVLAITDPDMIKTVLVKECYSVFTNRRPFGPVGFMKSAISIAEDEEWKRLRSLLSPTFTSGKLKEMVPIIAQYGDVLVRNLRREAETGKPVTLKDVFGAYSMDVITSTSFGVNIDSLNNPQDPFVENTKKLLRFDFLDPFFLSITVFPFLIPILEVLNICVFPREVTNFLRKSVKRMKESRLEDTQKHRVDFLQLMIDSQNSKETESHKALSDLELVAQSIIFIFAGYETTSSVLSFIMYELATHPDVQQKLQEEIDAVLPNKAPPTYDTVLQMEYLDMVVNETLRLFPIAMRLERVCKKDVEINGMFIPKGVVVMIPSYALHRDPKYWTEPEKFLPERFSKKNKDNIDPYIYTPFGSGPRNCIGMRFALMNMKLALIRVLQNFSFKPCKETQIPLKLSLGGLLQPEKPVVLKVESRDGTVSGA
# Chain of CYP2C9 (P11712 whole entry): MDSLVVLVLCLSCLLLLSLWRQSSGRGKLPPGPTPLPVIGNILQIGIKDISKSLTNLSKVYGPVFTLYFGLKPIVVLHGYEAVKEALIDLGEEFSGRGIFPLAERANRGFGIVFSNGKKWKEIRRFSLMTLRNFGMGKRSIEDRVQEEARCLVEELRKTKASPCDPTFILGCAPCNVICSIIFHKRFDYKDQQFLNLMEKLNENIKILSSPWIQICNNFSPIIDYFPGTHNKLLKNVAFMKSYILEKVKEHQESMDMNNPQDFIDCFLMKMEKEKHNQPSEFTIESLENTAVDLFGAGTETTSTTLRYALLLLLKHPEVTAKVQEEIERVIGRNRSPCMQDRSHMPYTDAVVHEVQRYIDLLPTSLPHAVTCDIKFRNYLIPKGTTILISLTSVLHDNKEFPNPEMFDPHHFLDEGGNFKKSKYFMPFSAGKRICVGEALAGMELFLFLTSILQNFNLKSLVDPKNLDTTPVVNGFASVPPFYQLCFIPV
# Chain of Advanced glycosylation end product-specific receptor (Q15109 whole entry): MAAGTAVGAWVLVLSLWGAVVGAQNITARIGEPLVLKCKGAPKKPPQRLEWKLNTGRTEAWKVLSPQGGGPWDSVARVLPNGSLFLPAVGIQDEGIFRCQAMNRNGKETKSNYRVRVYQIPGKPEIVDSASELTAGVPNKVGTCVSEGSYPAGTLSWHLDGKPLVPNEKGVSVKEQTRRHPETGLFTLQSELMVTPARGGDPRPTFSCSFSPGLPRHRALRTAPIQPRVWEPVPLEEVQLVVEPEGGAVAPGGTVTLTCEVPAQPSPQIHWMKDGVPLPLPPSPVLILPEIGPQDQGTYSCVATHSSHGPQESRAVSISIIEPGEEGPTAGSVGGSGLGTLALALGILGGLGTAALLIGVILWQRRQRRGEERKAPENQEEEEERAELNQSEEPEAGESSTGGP
# Chain of CYP2C19 (P33261 whole entry): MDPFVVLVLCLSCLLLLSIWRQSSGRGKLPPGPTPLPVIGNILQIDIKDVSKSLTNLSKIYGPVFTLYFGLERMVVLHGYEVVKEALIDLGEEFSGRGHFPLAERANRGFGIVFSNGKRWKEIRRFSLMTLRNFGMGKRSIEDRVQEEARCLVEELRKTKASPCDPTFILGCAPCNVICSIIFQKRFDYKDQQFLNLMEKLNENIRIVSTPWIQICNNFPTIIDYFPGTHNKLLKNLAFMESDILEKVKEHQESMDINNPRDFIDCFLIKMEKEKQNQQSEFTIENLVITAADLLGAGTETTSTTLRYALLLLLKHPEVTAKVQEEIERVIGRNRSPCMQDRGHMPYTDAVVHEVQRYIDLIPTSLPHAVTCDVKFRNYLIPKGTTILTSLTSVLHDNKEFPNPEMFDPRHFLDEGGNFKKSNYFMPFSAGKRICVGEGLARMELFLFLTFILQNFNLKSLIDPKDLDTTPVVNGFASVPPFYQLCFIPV
# Chain of Voltage-gated inwardly rectifying potassium channel KCNH2 (Q12809 whole entry): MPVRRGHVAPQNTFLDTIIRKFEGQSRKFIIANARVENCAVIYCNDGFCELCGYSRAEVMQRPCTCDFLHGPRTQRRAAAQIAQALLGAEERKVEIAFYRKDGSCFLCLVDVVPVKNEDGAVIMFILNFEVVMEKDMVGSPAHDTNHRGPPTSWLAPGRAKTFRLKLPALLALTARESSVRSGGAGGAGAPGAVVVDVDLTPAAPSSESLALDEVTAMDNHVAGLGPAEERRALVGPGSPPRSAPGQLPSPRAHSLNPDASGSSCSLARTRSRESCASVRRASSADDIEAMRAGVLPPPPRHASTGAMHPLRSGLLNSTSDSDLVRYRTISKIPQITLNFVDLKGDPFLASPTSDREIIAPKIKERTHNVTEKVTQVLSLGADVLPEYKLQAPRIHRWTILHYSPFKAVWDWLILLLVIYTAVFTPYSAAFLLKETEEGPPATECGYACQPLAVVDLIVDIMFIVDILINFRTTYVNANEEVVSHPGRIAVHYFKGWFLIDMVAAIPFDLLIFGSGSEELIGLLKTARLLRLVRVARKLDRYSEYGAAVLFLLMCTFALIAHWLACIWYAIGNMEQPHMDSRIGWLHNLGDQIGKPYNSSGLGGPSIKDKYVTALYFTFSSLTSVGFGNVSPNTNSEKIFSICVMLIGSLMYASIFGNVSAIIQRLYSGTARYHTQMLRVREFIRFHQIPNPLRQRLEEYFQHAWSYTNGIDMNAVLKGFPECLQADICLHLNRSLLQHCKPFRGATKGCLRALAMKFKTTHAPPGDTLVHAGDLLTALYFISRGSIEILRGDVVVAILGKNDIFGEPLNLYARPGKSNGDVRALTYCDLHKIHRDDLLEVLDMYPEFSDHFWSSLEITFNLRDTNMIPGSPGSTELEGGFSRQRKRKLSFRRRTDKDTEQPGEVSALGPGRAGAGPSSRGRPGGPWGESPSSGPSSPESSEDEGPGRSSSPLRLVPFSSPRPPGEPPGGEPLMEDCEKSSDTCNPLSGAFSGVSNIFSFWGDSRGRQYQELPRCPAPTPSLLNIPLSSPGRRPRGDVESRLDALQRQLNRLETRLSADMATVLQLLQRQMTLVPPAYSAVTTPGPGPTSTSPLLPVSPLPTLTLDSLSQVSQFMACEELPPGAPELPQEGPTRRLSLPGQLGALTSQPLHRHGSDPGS
compound,measurement,setting,value
CCCCc1nc(C2CCN(CCc3c[nH]c4ccc(C#N)cc34)CC2)cn1-c1ccc(Oc2ccc(Cl)cc2)cc1,IC50,[1],> 0.1 µM
same,IC50,[2],> 20 µM
CCN(CC)CCOc1cccc(Nc2nc(-c3ccc(Cl)cc3)cc(-c3ccc(Cl)cc3)n2)c1,IC50,[2],10.5 µM
N#Cc1ccc2[nH]cc(CCCCN3CCN(c4ccc5oc(C(N)=O)cc5c4)CC3)c2c1 [VILAZODONE],"inhibition at 10 min, 10 µM",CYP2C9,49.2%
same,"inhibition at 10 min, 10 µM",CYP1A2,14.4%
same,microsomal CLint at 100 µM,[3],49.3 µL/min/mg
same,Activity,Mus musculus [4],Active
same,"inhibition at 10 min, 10 µM",CYP3A4,29%
same,IC50,[2],> 200 µM
same,half-life at 100 µM,[5],0.468 h
same,"inhibition at 10 min, 10 µM",CYP2C19,51.3%
CCCCc1sc(C2CCN(CCCCc3cn(C)c4ccc(C#N)cc34)CC2)nc1-c1ccc(Oc2ccc(Cl)cc2)cc1,IC50,[6],7.2 µM
same,"viability at 24 h, 20 µM",[7],> 80%
same,"inhibition at 10 min, 10 µM",CYP2C9,8.6%
same,AUC(0-inf),[8],24700 ng·h/mL
same,Activity,[9],Non-Toxic
same,Activity,[10],Non-Toxic
same,Activity,[11],Non-Toxic
same,bioavailability,[12],17.1%
same,survival at 336 h,[13],100%
same,Activity,[14],Toxic
same,half-life,[15],3.46 h
same,clearance,[16],7.09 mL/min/kg
same,half-life,[17],5.55 h
same,Cmax,[18],4940 ng/mL
same,"inhibition at 10 min, 10 µM",CYP1A2,17.2%
same,Vd,[19],1.04 L/kg
same,microsomal CLint at 100 µM,[3],17.6 µL/min/mg
same,Cmax,[20],51700 ng/mL
same,Activity,Mus musculus [21],Active
same,Activity,[22],Non-Toxic
same,"inhibition at 10 min, 10 µM",CYP3A4,16.3%
same,Activity,[23],Non-Toxic
same,half-life at 100 µM,[5],1.31 h
same,Activity,[24],Non-Toxic
same,AUC(0-inf),[25],23700 ng·h/mL
same,Activity,SH-SY5Y [26],Non-Toxic
same,"inhibition at 10 min, 10 µM",CYP2C19,23.7%
N#Cc1ccc2[nH]cc(CCCCN3CCC(c4cn(-c5ccc(Oc6ccc(Cl)cc6)cc5)c(C5CCC5)n4)CC3)c2c1,Activity,SH-SY5Y [27],Toxic
same,Activity,SH-SY5Y [28],Toxic
CCCCCc1nc(C2CCN(CCCCc3cn(C)c4ccc(C#N)cc34)CC2)cn1-c1ccc(Oc2ccc(Cl)cc2)cc1,Activity,SH-SY5Y [27],Toxic
same,Activity,SH-SY5Y [28],Toxic
CCCCc1sc(C2CCN(CCCCc3c[nH]c4ccc(C#N)cc34)CC2)nc1-c1ccc(Oc2ccc(Cl)cc2)cc1,Activity,SH-SY5Y [27],Non-Toxic
same,Activity,SH-SY5Y [28],Toxic
C[C@]12CC[C@H]3[C@@H](CCC4=CC(=O)CC[C@@]43C)[C@@H]1CC[C@@H]2O [TESTOSTERONE],remaining at 1 h,[29],2.2%
CCCCc1nc(C2CCN(Cc3c[nH]c4ccc(C#N)cc34)CC2)cn1-c1ccc(Oc2ccc(Cl)cc2)cc1,Activity,SH-SY5Y [27],Toxic
same,Activity,SH-SY5Y [28],Toxic
CCCCc1sc(C2CCN(CCc3c[nH]c4ccc(C#N)cc34)CC2)nc1-c1ccc(Oc2ccc(Cl)cc2)cc1,IC50,[1],> 0.1 µM
same,IC50,[2],> 20 µM
CCc1nc(C2CCN(CCCCc3c[nH]c4ccc(C#N)cc34)CC2)cn1-c1ccc(Oc2ccc(Cl)cc2)cc1,Activity,SH-SY5Y [27],Toxic
same,Activity,SH-SY5Y [28],Toxic
CCCCc1nc(C2CCN(CCCCc3c[nH]c4ccc(C#N)cc34)CC2)cn1-c1ccc(Oc2ccc(Cl)cc2)cc1,"viability at 24 h, 5 µM",[30],4.82%
same,Activity,SH-SY5Y [27],Toxic
same,Activity,SH-SY5Y [28],Toxic
CCCCc1nc(-c2ccc(OCCCN(CC)CC)cc2)cn1-c1ccc(Oc2ccc(Cl)cc2)cc1 [AZELIRAGON],IC50,[6],< 1 µM
same,"inhibition at 10 min, 10 µM",CYP2C9,3.7%
same,IC50,[1],> 3 µM
same,"inhibition at 10 min, 10 µM",CYP1A2,0%
same,microsomal CLint at 100 µM,[3],14.9 µL/min/mg
same,Activity,SH-SY5Y [27],Toxic
same,"inhibition at 10 min, 10 µM",CYP3A4,0%
same,half-life at 100 µM,[5],1.55 h
same,"inhibition at 10 min, 10 µM",CYP2C19,7.9%
CCCc1nc(C2CCN(CCCCc3c[nH]c4ccc(C#N)cc34)CC2)cn1-c1ccc(Oc2ccc(Cl)cc2)cc1,Activity,SH-SY5Y [27],Toxic
same,Activity,SH-SY5Y [28],Toxic
